{"source": "patent EP1336412A1", "about": "“Combinations of an antibiotic and a murein hydrolase inhibitor” (priority 2002, dated 2003)", "key": {"[1]": {"test_system": "E. coli MHD52 (deletion of AmiABC)", "assay": "Growth of E. coli with inhibited murein septum cleavage (MHD52) after addition of agent", "format": "cell-based, Escherichia coli", "conditions": "LB medium, 37°C, aerobic", "method": "(§1) Bacteria were cultivated aerobically at 37° C in LB medium (J.H. Miller, Experiments in Molecular Genetics, Cold Spring Harbor Laboratory, Cold Spring Harbor (1972)). Agar plates contained 1.5 % agar (Gibco BRL, Paisley, Scotland). Growth was monitored by optical density readings at 578 nm in an Eppendorf photometer (Eppendorf, Hamburg, Germany). Antibiotics were used at the following concentrations: 50 (µg/ml ampicillin (amp), 50 (µg/ml kanamycin (kan), 20 (µg/ml chloramphenicol (cm) and 12.5 µg/ml tetracyclin (tet).\n(§2) At the indicated time point (arrow) deoxycholate (1 g/l) or crystal violet (1 mg/l), respectively, were added. See the results in Fig. 4 (filled circles: wild type E. coli plus deoxycholate; filled triangles: MHD52 plus crystal violet; filled squares: MHD52 plus deoxycholate). Likewise, the cells were grown in the same manner, but at the indicated time point (arrow) vancomycin (20 µg/ml) was added. See the results in Fig. 5 (open circles: wild type E. coli; filled circles: wild type E. coli plus vancomycin; open squares: MHD52; filled squares: MHD52 plus vancomycin)."}, "[2]": {"test_system": "bacterial cells following the inhibition of the cleavage of the bacterial murein septum", "assay": "Sensitivity of bacterial cells to detergents and high molecular weight antibiotics after inhibition of murein septum cleavage", "format": "cell-based"}, "[3]": {"test_system": "wild-type E. coli MC1061", "assay": "Growth of wild-type E. coli after addition of agent", "format": "cell-based, Escherichia coli", "conditions": "vancomycin 20 µg/ml; LB medium, 37°C, aerobic; wild type (septum cleavage not inhibited)", "method": "as §1, §2"}}, "data": [{"compound": "CN(C)c1ccc(C(=C2C=CC(=[N+](C)C)C=C2)c2ccc(N(C)C)cc2)cc1", "note": "[crystal violet]", "values": [{"measurement": "effect on growth (Fig. 4)", "setting": "[1]; crystal violet 1 mg/l, MHD52", "value": "insignificant effect"}]}, {"compound": "mersacidin", "values": [{"measurement": "sensitivity of bacterial cells", "setting": "[2]", "value": "significant increase in the sensitivity"}]}, {"compound": "ramoplanin", "values": [{"measurement": "sensitivity of bacterial cells", "setting": "[2]", "value": "significant increase in the sensitivity"}]}, {"compound": "CN[C@H](CC(C)C)C(=O)N[C@H]1C(=O)N[C@@H](CC(N)=O)C(=O)N[C@H]2C(=O)N[C@H]3C(=O)N[C@H](C(=O)N[C@H](C(=O)O)c4cc(O)cc(O)c4-c4cc3ccc4O)[C@H](O)c3ccc(c(Cl)c3)Oc3cc2cc(c3O[C@@H]2O[C@H](CO)[C@@H](O)[C@H](O)[C@H]2O[C@H]2C[C@](C)(N)[C@H](O)[C@H](C)O2)Oc2ccc(cc2Cl)[C@H]1O", "note": "[vancomycin]", "values": [{"measurement": "effect on growth (Fig. 5)", "setting": "[3]", "value": "normal growth"}, {"measurement": "effect on growth (Fig. 5)", "setting": "[1]; vancomycin 20 µg/ml, MHD52 (septum cleavage inhibited)", "value": "growth controlling effect"}]}, {"compound": "Triton X100", "values": [{"measurement": "sensitivity of bacterial cells", "setting": "[2]", "value": "significant increase in the sensitivity"}]}]}
